Where a name gives a salt, the structure may show the parent alone. Read-outs that look alike come from different tables or passages of the source.
Test system: murine neural precursor cells (neurosphere cultures)
Test: HTS of LOPAC library against secondary neurosphere cultures, MTT proliferation assay at 3 μM, day 7 (z score, P value)
Type: cell-based, mouse
[1] = yes/no: significantly inhibited neurosphere proliferation (P<0.01) in the primary screen
[2] = LOPAC library screen at 3 μM, secondary neurosphere cultures, MTT
[3] = primary LOPAC screen, 3 μM, MTT, neurosphere proliferation
[4] = yes/no: significantly inhibited neurosphere proliferation in the primary screen
[5] = LOPAC primary screen, neurosphere MTT proliferation, 3 μM, day 7
[6] = yes = significantly inhibited neurosphere proliferation (P<0.01) in the primary screen
[7] = LOPAC screen, neurosphere MTT proliferation, 3 μM, day 7
[8] = yes/no: significantly inhibited neurosphere proliferation (P<0.01) in primary screen
[9] = LOPAC library screen, 3 μM, MTT, secondary neurosphere cultures, day 7
[10] = yes/no: significantly inhibited neurosphere proliferation in primary screen
[11] = LOPAC library screen, 3 μM, MTT, neurosphere cultures

Compound: COc1ccccc1CNCCCCCCNCCCCCCCCNCCCCCCNCc1ccccc1OC [Methoctramine (31), Methoctramine, reference compound]
- Z Score (168 h, 3 µM): −7.012
- Z score (168 h, 3 µM): −7.012
- Activity [1]: yes

Compound: NS(=O)(=O)Cc1noc2ccccc12 [Zonisamide sodium]
- Z Score [2]: −0.9169
- Z score [3]: −0.917
- Activity [4]: no

Compound: O=C(Nc1cc(C(=O)Nc2ccc(S(=O)(=O)[O-])cc2S(=O)(=O)[O-])cc(C(=O)Nc2ccc(S(=O)(=O)[O-])cc2S(=O)(=O)[O-])c1)Nc1cc(C(=O)Nc2ccc(S(=O)(=O)[O-])cc2S(=O)(=O)[O-])cc(C(=O)Nc2ccc(S(=O)(=O)[O-])cc2S(=O)(=O)[O-])c1.[Na+].[Na+].[Na+].[Na+].[Na+].[Na+].[Na+].[Na+] [NF449 octasodium salt]
- Z Score: 1.851
- Z score [5]: 1.851
- Activity [6]: no

Compound: NC(=NCc1ccccc1)NC(=O)c1nc(Cl)c(N)nc1N [Benzamil hydrochloride]
- Z Score [2]: −1.054
- Z score [7]: −1.054
- Activity [8]: no

Compound: CNc1ccc2oc(C[C@H]3O[C@@]4(CC[C@H]3C)O[C@H]([C@H](C)C(=O)c3ccc[nH]3)[C@H](C)C[C@H]4C)nc2c1C(=O)O [Calcimycin]
- Z Score: 2.172
- Z score [7]: 2.172
- Activity [8]: no

Compound: (−)-Eseroline fumarate
- Z Score: 0.6339
- Z score [5]: 0.634
- Activity [8]: no

Compound: CC(=N)NCCCC[C@H](N)C(=O)O.Cl [L-N6-(1-Iminoethyl)lysine hydrochloride]
- Z Score: −0.3809
- Z score [5]: −0.381
- Activity [8]: no

Compound: CC(C)N(CCC(C(N)=O)(c1ccccc1)c1ccccn1)C(C)C (stereo not shown) [Disopyramide]
- Z Score [9]: −4.179
- Z score [5]: −4.179
- Activity [1]: yes

Compound: O=C(O)c1ccccc1Nc1cccc(OCc2ccc3ccccc3n2)c1 [SR 2640]
- Z Score: −1.548
- Z score [5]: −1.548
- Activity [10]: no

Compound: O=c1c(O)c(-c2cc(O)c(O)c(O)c2)oc2cc(O)cc(O)c12 [Myricetin]
- Z Score: −0.9113
- Z score [5]: −0.911
- Activity [6]: no

Compound: CCCCCCCCCCCCCCCC(=O)OC(CC(=O)O)C[N+](C)(C)C.[Cl-] (racemic) [Palmitoyl-DL-Camitine chloride]
- Z score [5]: 0.200
- Activity [10]: no

Compound: NCc1cc(=O)[nH]o1 [Muscimol hydrobromide]
- Z Score: 0.1863
- Z score [5]: 0.186
- Activity [8]: no

Compound: (−)-MK-801 hydrogen maleate
- Z Score: 1.133
- Z score [5]: 1.133
- Activity [6]: no

Compound: CN(C)C/C=C(/c1ccc(Br)cc1)c1cccnc1 [Zimelidine dihydrochloride]
- Z Score [2]: −0.649
- Z score [3]: −0.649
- Activity [4]: no

Compound: CC(C)(C)c1cc(/C=C(\C#N)C(N)=S)cc(C(C)(C)C)c1O [Tyrphostin AG 879]
- Z Score [9]: −1.607
- Z score [3]: −1.607
- Activity [4]: no

Compound: O=C(O)C1CN(CCCP(=O)(O)O)CCN1 (racemic) [(±)-CPP]
- Z score [7]: 0.321
- Activity [8]: no

Compound: N[C@@H]1CONC1=O (racemic) [DL-Cycloserine]
- Z Score [2]: −0.2986
- Z score [7]: −0.299
- Activity [8]: no

Compound: CCCCS(=N)(=O)CCC(N)C(=O)O (racemic) [DL-Buthionine-[S,R]-sulfoximine]
- Z Score [2]: −1.022
- Z score [7]: −1.022
- Activity [8]: no

Compound: Cc1cccc(C)c1OCC(C)N.Cl (stereo not shown) [Mexiletene hydrochloride]
- Z Score: −1.259
- Z score [5]: −1.259
- Activity [6]: no

Compound: NC(CO)C(=O)NNCc1ccc(O)c(O)c1O (stereo not shown) [Benserazide hydrochloride]
- Activity: no
- Z Score [11]: 0.007467
- Z score [7]: 0.007

Compound: CCCN1C[C@H](CSC)C[C@@H]2c3cccc4[nH]cc(c34)C[C@H]21 [Pergolide methanesulfonate]
- Z Score [9]: −2.657
- Z score [5]: −2.657
- Activity [1]: yes

Compound: COc1cc(CC(C)N)c(OC)cc1I.Cl (racemic) [(±)-DOI hydrochloride]
- Z score [7]: −1.345
- Activity [8]: no

Compound: O=c1cc(-c2ccc(O)cc2)oc2cc(O)cc(O)c12 [Apigenin]
- Z Score (168 h, 3 µM): 1.824
- Z score (168 h, 3 µM): 1.824
- Activity [4]: no

Compound: CCn1cc(C(=O)O)c(=O)c2cc3c(cc21)OCO3 [Oxolinic acid]
- Z Score [11]: 0.9179
- Z score [5]: 0.918
- Activity [10]: no

Compound: O=[N+]([O-])c1cccc2cn[nH]c12 [7-Nitroindazole (34), 7-Nitroindazole, reference compound]
- Z Score: −1.349
- Z score [5]: −1.349
- Activity [6]: no

Compound: CNCC(O)c1ccc(O)cc1 (racemic) [(±)-Synephrine]
- Z score [5]: −0.149
- Activity [10]: no

Compound: O=c1[nH]c2ccccc2c2ccccc12 [6(5H)-Phenanthridinone]
- Z Score (168 h, 3 µM): 0.6765
- Z score (168 h, 3 µM): 0.677
- Activity [10]: no

Compound: CC(=O)NBr [N-Bromoacetamide]
- Z Score [9]: −1.362
- Z score [7]: −1.362
- Activity [8]: no

Compound: C=C(C)[C@@H]1CC=C(C(=O)O)CC1 [(−)-Perilic acid]
- Z score [5]: −1.321
- Activity [10]: no

Compound: C[C@]12CC[C@@H](O)C[C@@H]1CC[C@@H]1[C@@H]2CC[C@]2(C)[C@@H](C(=O)CO)CC[C@@H]12
- Z Score: 0.4441
- Z score [5]: 0.444
- Activity [10]: no

Compound: NN=C(N)N.NN=C(N)N.O=S(=O)(O)O [Aminoguanidine hemisulfate]
- Activity: no
- Z Score: −1.219
- Z score: −1.219

Compound: CC[N+](CC)(CC)CC.[Cl-] [Tetraethylammonium chloride]
- Activity: no
- Z Score: 0.123
- Z score: 0.123

Compound: CCCN(CCC)C1Cc2cc(OC)c(OC)cc2C1.O=C(O)/C=C\C(=O)O [U-99194A meleate]
- Z score [5]: 1.255
- Activity [1]: no

Compound: CC(C)(C)[C@]1(O)CCN2C[C@H]3c4ccccc4CCc4cccc(c43)[C@@H]2C1.Cl [(B1)-Butaclamol hydrochloride]
- Z Score: −5.934

Compound: CC(C)[N+]1(C)[C@@H]2CC[C@H]1CC(OC(=O)C(CO)c1ccccc1)C2.[Br-] (stereo partly shown) [Ipratropium bromide]
- Z Score: −0.308
- Z score [5]: −0.308
- Activity [8]: no

Compound: CCN1CCCC1CNC(=O)c1cc(S(N)(=O)=O)ccc1OC (stereo not shown) [(B1)-Sulpiride]
- Z Score: −0.2841

Compound: O=C1CN(/N=C/c2ccc(-c3ccc([N+](=O)[O-])cc3)o2)C(O)=N1 [Dantrolene sodium]
- Activity: no
- Z Score [11]: 0.7985
- Z score [7]: 0.798

Compound: Cl.NCCCCC(=O)O [5-Aminovaleric acid hydrochloride]
- Z Score (168 h, 3 µM): −1.67
- Z score (168 h, 3 µM): −1.670
- Activity [10]: no

Compound: CCCc1c(OCCCOc2ccc(OCC(=O)O)cc2)ccc(C(C)=O)c1O [L-165,041]
- Z Score: 0.3062
- Z score [5]: 0.306
- Activity [8]: no

Compound: CN(C)c1nc(N)c(C(=O)NC(=N)N)nc1Cl.Cl [5-(N,N-Dimethyl)amiloride hydrochloride]
- Z Score: 2.396
- Z score [3]: 2.396
- Activity [4]: no

Compound: N[C@H](C(=O)O)[C@H]1C[C@@H]1C(=O)O
- Z Score: 1.233
- Z score [7]: 1.233
- Activity [8]: no

Compound: (±)-Atenolol
- Z score [3]: −0.658
- Activity [4]: no

Compound: N[C@H](C(=O)O)c1cc(O)no1 [(B1)-Ibotenic acid]
- Z Score: −1.65

Compound: Cl.N=c1c[n+](N2CCOCC2)[n-]o1 [3-Morpholinosydnonimine hydrochloride]
- Z Score (168 h, 3 µM): −1.324
- Z score (168 h, 3 µM): −1.324
- Activity [6]: no

Compound: C=CC[N+](C)(C)c1ccc(CCC(=O)CCc2ccc([N+](C)(C)CC=C)cc2)cc1.[Br-].[Br-] [BW 284c51]
- Z Score: −0.4017
- Z score [3]: −0.402
- Activity [4]: no

Compound: COc1cc2c(CCNC(C)=O)c[nH]c2cc1O [6-Hydroxymelatonin]
- Z Score [11]: 0.3767
- Z score [5]: 0.377
- Activity [8]: no

Compound: CCOC(=O)Nc1ccc(NCc2ccc(F)cc2)nc1N [Flupirtine maleate]
- Z Score [2]: −0.484
- Z score [5]: −0.484
- Activity [8]: no

Compound: OC[C@H]1NC[C@@H](O)[C@@H]1O [1,4-Dideoxy-1,4-imino-D-arabinitol]
- Z Score (168 h, 3 µM): −0.008617
- Z score (168 h, 3 µM): −0.009
- Activity [8]: no

Compound: CCCn1c(=O)c2[nH]c(C3CCCC3)nc2n(CCC)c1=O [8-Cyclopentyl-1,3-dipropylxanthine]
- Z Score (168 h, 3 µM): −0.07021
- Z score (168 h, 3 µM): −0.070
- Activity [8]: no

Compound: Cc1nc(N=Nc2ccc(S(=O)(=O)O)cc2S(=O)(=O)O)c(COP(=O)(O)O)c(C=O)c1O [PPADS]
- Z Score: 1.106
- Z score [5]: 1.106
- Activity [10]: no

Compound: N#Cc1c(-c2ccccc2)no[n+]1[O-] [4-Phenyl-3-furoxancarbonitrile]
- Z Score (168 h, 3 µM): 0.9313
- Z score (168 h, 3 µM): 0.931
- Activity [10]: no

Compound: C[C@@H]1O[C@@H]1P(=O)([O-])[O-].[Na+].[Na+] [Phosphomycin disodium]
- Z Score [9]: −1.402
- Z score [5]: −1.402
- Activity [6]: no

Compound: NCCS(=O)O [Hypotaurine]
- Activity: no
- Z Score: 0.2752
- Z score: 0.275

Compound: CCCCCCCCC(=O)NCc1ccc(O)c(OC)c1 [N-Vanillylnonanamide]
- Z Score [9]: −9.029
- Z score [5]: −9.029
- Activity [1]: yes

Compound: NC(CCCCCP(=O)(O)O)C(=O)O (racemic) [(±)-2-Amino-7-phospheneheptanoic acid]
- Z score [3]: −1.020
- Activity [4]: no
